Experimental findings from US20230219911A1, “BENZOTHIAZOLE DERIVATIVES AND USES THEREOF” (SHENYANG PHARMACEUTICAL UNIVERSITY, priority 2020, published 2023) are described below.

Structures are written as SMILES. Read-outs that look alike come from different tables or passages of the source.

Experiment [1] concerns the target T1, sEH enzyme (human recombinant) (Homo sapiens, UniProt P34913).
T1 construct: purchased Cayman Chemical
T1 sequence (P34913 1-555): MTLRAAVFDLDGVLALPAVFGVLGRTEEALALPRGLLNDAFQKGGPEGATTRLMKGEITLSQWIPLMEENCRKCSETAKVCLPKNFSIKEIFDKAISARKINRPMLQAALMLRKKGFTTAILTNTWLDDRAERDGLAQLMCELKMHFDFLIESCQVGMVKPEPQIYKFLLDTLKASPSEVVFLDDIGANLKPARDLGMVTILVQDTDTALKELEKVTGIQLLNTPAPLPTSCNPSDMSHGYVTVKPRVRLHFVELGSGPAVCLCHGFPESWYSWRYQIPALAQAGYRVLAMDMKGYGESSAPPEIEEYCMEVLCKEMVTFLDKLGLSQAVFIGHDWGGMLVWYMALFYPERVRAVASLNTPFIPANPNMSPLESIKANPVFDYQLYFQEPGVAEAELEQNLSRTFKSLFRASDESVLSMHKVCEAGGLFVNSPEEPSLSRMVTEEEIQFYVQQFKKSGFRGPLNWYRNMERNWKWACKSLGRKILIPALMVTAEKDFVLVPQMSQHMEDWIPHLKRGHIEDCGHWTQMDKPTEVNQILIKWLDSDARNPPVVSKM
The experiment in a line: in vitro sEH enzyme activity by fluorescence analysis, single concentration inhibition. It counts as biochemical. To be noted: read-out: sEH % inhibition, @ 0.1 μM. The method, then: The benzothiazole skeleton compounds (concentration: 0.1 μM) according to the above formula I of the present invention were tested for the in vitro sEH enzyme activity by fluorescence analysis.
12 μL of sEH enzyme (human recombinant, 0.5 mg/mL, Cayman Chemical) was diluted with 588 μL of buffer (25 mM bis-Tris, pH 7.0). The fluorescent substrate was PHOME (cyano-(6-methoxy-naphthalen-2-yl)-methyl (3-phenyl-oxiranyl)-acetate) in DMSO (10 μM, Cayman Chemical). The compound to be tested was dissolved in 100% DMSO at a concentration of 4 μM. 185 μL of buffer (25 mM bis-Tris, pH 7.0), 5 μL of compound solution, and 5 μL of diluted sEH enzyme were added to the wells of a 96-well plate, and finally 5 μL of substrate solution was added to initiate the reaction. After incubating at 37° C. for 15 min, the fluorescence signal was measured with a microplate reader (excitation wavelength 330 nm, emission wavelength 465 nm).
Inhibition (%)=(F0−F1)/(F0)×100.

In experiment [2] the target is T1, sEH enzyme (human recombinant). Kind of experiment: in vitro IC50 of soluble epoxide hydrolase (sEH) by fluorescence analysis. Type of experiment: biochemical. The method, then:
The benzothiazole skeleton compounds according to the above formula I of the present invention were tested for the in vitro sEH enzyme activity by fluorescence analysis. […] 12 μL of sEH enzyme (human recombinant, 0.5 mg/mL, Cayman Chemical) was diluted with 588 μL of buffer (25 mM bis-Tris, pH 7.0). […] The inhibitions at different concentrations for the compound were respectively measured in accordance with the inhibition assay, to calculate IC50.

In experiment [3] the test system is carrageenan-induced paw swelling in KM mice. The experiment in a line: Measurement of anti-inflammatory effect, carrageenan-induced paw swelling. It counts as in vivo. To be noted: intraperitoneal injection 1 hour before carrageenan, FIG. 3. How it is done:
1 hour in advance, the mice were intraperitoneally injected with the solutions of the compounds of Examples 12, 18, 27, and 40 (10% PEG 400, 10% Tween 80) or the blank solvent, respectively. Taking the initial paw thickness of the mice before modeling as 100%, the changes in the paw thickness of the mice were measured.
(Carrageenan injected into the paw causes an acute inflammation.)

Experiment [4] has as its system traumatic brain injury model SD rats. The experiment in a line: Measurement of brain injury protection, traumatic brain injury model (modified Feeney method). It counts as in vivo. How it is done:
45 male SD rats (6 to 8 weeks old) (SPF (Beijing) Biotechnology Co., Ltd.) were divided into the sham group, blank solvent group, and dosing group. 72 hours after intraperitoneally injecting the compound of Example 12 or blank solvent, a traumatic brain injury model was established using the modified Feeney method (Marmarou A, Foda M A, van den Brink W, et al., A new model of diffuse brain injury in rats. Part I: Pathophysiology and biomechanics. Journal of Neurosurgry, 1994, 80(2):291 to 300.). 23 hours after model establishment, three […] in each group were injected with Evans blue solution through the tail vein, and after 1 hour of circulation, the mice were decapitated and the brain was taken out to determine the content of Evans blue (EB), so as to study the permeability. Another three rats were taken to measure the water content in brain.

For experiment [5], the system named is streptozotocin STZ diabetic model Balb/c mice. The experiment in a line: Measurement of hypoglycemic effect, streptozotocin diabetic model. The following applies: intraperitoneal once a day, after two weeks, FIG. 4. It counts as in vivo. How it is done: Male Balb/c mice (6 to 8 weeks old) (SPF (Beijing) Biotechnology Co., Ltd.) were intraperitoneally injected with streptozotocin STZ (40 mg/kg) once a day for 5 consecutive days, to prepare a diabetic model (Like A A, Rossini A A. Streptozotocin-induced pancreatic insulitis: new model of diabetes mellitus. Science, 1976, 193(4251):415-7). The mice after modeling were intraperitoneally injected with the solution of compound of Example 12 once a day.

In experiment [6] the test system is carrageenan inflammatory pain model SD rats. Kind of experiment: Measurement of analgesic effect, carrageenan inflammatory pain model, hot plate. Type of experiment: in vivo. To be noted: intragastric suspension 15 mg/mL, 1 hour before modeling, FIG. 6. The method, then: Male SD rats (6 to 8 weeks old) (SPF (Beijing) Biotechnology Co., Ltd.) were subcutaneously injected with 50 μL of 1% λ-carrageenan saline solution at planta to prepare an inflammatory pain model (Rose T E, Morisseau C, Liu J Y, et al. 1-Aryl-3-(1-acylpiperidin-4-yl)urea inhibitors of human and murine soluble epoxide hydrolase: structure-activity relationships, pharmacokinetics, and reduction of inflammatory pain. J Med Chem, 2010, 53(19): 7067-7075). The compounds of Examples 12 and 40 were added to 0.5% sodium carboxymethylcellulose solution and ground to prepare a suspension with a concentration of 15 mg/mL. 1 hour before modeling, the rats were intragastrically administrated. The changes in the paw withdrawal time of rats were measured with a hot plate dolorimeter.

Experiment [7] relates to lipopolysaccharide-injected KM mice, forced swimming test. The experiment in a line: Measurement of antidepressant effect, lipopolysaccharide / forced swimming test. It counts as in vivo. The following applies: subcutaneous injection 23 hours after lipopolysaccharide, test 1 hour later, FIG. 7. How it is done: Male KM mice (6 to 8 weeks old) (SPF (Beijing) Biotechnology Co., Ltd.) swam in advance for 10 min, and were injected with lipopolysaccharide (0.5 mg/kg). After 23 hours, the mice were subcutaneously injected with the solutions of the compounds of Examples 12 and 40 or the blank solvent. After 1 hour, the mice were subjected to the forced swimming test for 6 min, and the immobility time (s) in later 4 minute for the mice in each group was recorded.

Experiment [8] has as its system STZ-induced retinopathy model Wistar rats. Kind of experiment: Improvement effect on diabetic retinopathy, STZ-induced retinopathy model. It counts as in vivo. The following applies: 0.1% eye drops topically every day, after 6 months, FIG. 5. How it is done:
Male Wistar rats (180 to 200 g) (Experimental Animal Center, Hebei Medical University) were intraperitoneally injected with streptozotocin STZ (60 mg/kg) to prepare a diabetic model, and were fed for 3 months to induce a retinopathy model (Miyamoto K, Khosrof S, Bursell S E, et al. Prevention of leukostasis and vascular leakage in streptozotocin-induced diabetic retinopathy via intercellular adhesion molecule-1 inhibition. Proc Natl Acad Sci USA, 1999, 96(19): 10836-10841). The compound of Example 40 was dissolved in 10% hydroxypropyl-p-cyclodextrin solution, to be prepared into eye drops with a content of 0.1% for the compound of Example 40. The rats were topically administrated in eyes every day.

In general, inhibition refers to the share of the control response that was lost under treatment. By IC50 is commonly meant the concentration that inhibits the measured activity by half. Consider `Nc1nc2ccc(N(CCN3CCOCC3)C(=O)Nc3ccc(Cl)cc3)cc2s1` [Example 12, 1-(2-aminobenzo[d]thiazol-6-yl)-1-[2-(4-morpholinyl)ethyl]-3-(4-chlorophenyl)urea], for which the inhibition at 0.1 µM in experiment [1] came out at 68.7%. In experiment [2] (human recombinant sEH, PHOME substrate, read-out: IC50), the IC50 is 4.1 nM. Also, in experiment [3], the “carrageenan-induced paw swelling (paw thickness)” value is “significantly inhibit” and the “effect on paw swelling compared with celecoxib” value is “better than that of celecoxib”. Also, the “Water content in brain (%)” value in experiment [4] (30 mg/kg intraperitoneal, 72 hours before traumatic brain injury, * p < 0.05 vs blank solvent group) is recorded as 79.46 ± 0.68 * %. Further, the “EB content (μg/g)” value in experiment [4] (30 mg/kg intraperitoneal, Evans blue in brain, 24 hours after model, * p < 0.05 vs blank solvent group) is reported as 25.23 ± 1.63 * μg/g. In addition, in experiment [4] (traumatic brain injury rats, text summary of Table 4), the “water content in brain (in words)” value was “reduce the water content”. In experiment [5], the blood glucose result is listed as “significantly lower than that of the model group” and the glucose tolerance entry was “higher than that of the model group”. Also, the “paw withdrawal time in hot plate dolorimeter” value in experiment [6] is given as “significantly prolong the paw withdrawal time”. In addition, the “immobility time in forced swimming” value in experiment [7] is given as “significantly reduce the immobility time”.

Regarding `O=C(Nc1ccc(Cl)cc1)Nc1nc2ccc(N(CCN3CCOCC3)C(=O)Nc3ccc(Cl)cc3)cc2s1` [Example 40, 1-{2-[3-(4-chlorophenyl)ureido]benzo[d]thiazol-6-yl}-1-[2-(4-morpholinyl)ethyl]-3-(4-chlorophenyl)urea], the inhibition at 0.1 µM in experiment [1] (compound 0.1 μM, human recombinant sEH, PHOME substrate, 37° C. 15 min) came out at 43%. In experiment [2], the IC50 was 0.11 nM. In addition, in experiment [3], the “carrageenan-induced paw swelling (paw thickness)” value is recorded as “significantly inhibit” and the “effect on paw swelling compared with celecoxib” value is reported as “better than that of celecoxib”. Moreover, the “non-proliferative diabetic retinopathy symptoms (retinal capillary free pericytes, vascular leakage)” value in experiment [8] is listed as “significantly alleviated”. The “paw withdrawal time in hot plate dolorimeter” value in experiment [6] is given as “significantly prolong the paw withdrawal time”. For the same molecule, in experiment [7], the “immobility time in forced swimming” value is “significantly reduce the immobility time”.
